The source made the active and inactive calls. The calls are words filed in the database; no cut-off is given here.
Assays:
[1] = target: T1, Protein cereblon/Wee1-like protein kinase (Homo sapiens) (UniProt P30291+Q96SW2); test: PROTAC activity at CRBN/Wee1 in human HeLa S3 cells assessed as induction of Wee1 degradation by measuring reduction in phosphorylation of CDK1 at Tyr15 residue at 1 uM measured after 24 hrs by Western blot analysis relative to control; format: cell-based; parameters: scale not given: the % may be the effect or the level left
[2] = target: T1, Protein cereblon/Wee1-like protein kinase (Homo sapiens); test: PROTAC activity at CRBN/Wee1 in human LNCaP cells assessed as induction of Wee1 degradation at 300 nM and above concentrations measured after 4 hrs by Western blot analysis; format: cell-based
[3] = tested on: LNCaP; test: Antiproliferative activity against human LNCaP cells assessed as inhibition of cell growth measured after 72 hrs by MTS assay; format: functional, cell-based
[4] = target: T1, Protein cereblon/Wee1-like protein kinase (Homo sapiens); test: PROTAC activity at CRBN/Wee1 in human BT-549 cells assessed as induction of Wee1 degradation by measuring reduction in CDK1 phosphorylation at Tyr15 residue at 300 nM and above concentrations measured after 4 hrs by Western blot analysis; format: cell-based; conditions: MCF7
[5] = target: T1, Protein cereblon/Wee1-like protein kinase (Homo sapiens); test: PROTAC activity at CRBN/Wee1 in human HeLa S3 cells assessed as induction of Wee1 degradation at 1 uM measured after 24 hrs by Western blot analysis relative to control; format: cell-based
[6] = tested on: BT-549; test: Antiproliferative activity against human BT-549 cells assessed as inhibition of cell growth measured after 72 hrs by MTS assay; format: functional, cell-based; conditions: BT-549, 72 h
[7] = target: T1, Protein cereblon/Wee1-like protein kinase (Homo sapiens); test: PROTAC activity at CRBN/Wee1 in human MCF7 cells assessed as induction of Wee1 degradation at 300 nM and above concentrations measured after 4 hrs by Western blot analysis; format: cell-based
[8] = target: T1, Protein cereblon/Wee1-like protein kinase (Homo sapiens); test: PROTAC activity at CRBN/Wee1 in human PC-3 cells assessed as induction of Wee1 degradation by measuring reduction in CDK1 phosphorylation at Tyr15 residue at 100 nM and above concentrations measured after 4 hrs by Western blot analysis; format: cell-based
[9] = target: T1, Protein cereblon/Wee1-like protein kinase (Homo sapiens); test: PROTAC activity at CRBN/Wee1 in human HeLa S3 cells assessed as induction of Wee1 degradation at 30 to 10000 nM measured after 4 hrs by Western blot analysis; format: cell-based; conditions: dose 30-10000 nM
[10] = target: T1, Protein cereblon/Wee1-like protein kinase (Homo sapiens); test: PROTAC activity at CRBN/Wee1 in human LNCaP cells assessed as induction of Wee1 degradation by measuring reduction in CDK1 phosphorylation at Tyr15 residue at 300 nM and above concentrations measured after 4 hrs by Western blot analysis; format: cell-based
[11] = target: T1, Protein cereblon/Wee1-like protein kinase (Homo sapiens); test: PROTAC activity at CRBN/Wee1 in human HeLa S3 cells assessed as induction of Wee1 degradation at 1 uM pretreated with pomalidomide for 2 hrs followed by incubation with compound for 5 hrs by Western blot analysis; format: cell-based
[12] = target: T1, Protein cereblon/Wee1-like protein kinase (Homo sapiens); test: PROTAC activity at CRBN/Wee1 in human BT-549 cells assessed as induction of Wee1 degradation by measuring reduction in CDK1 phosphorylation at Tyr15 residue at 100 nM and above concentrations measured after 4 hrs by Western blot analysis; format: cell-based
[13] = target: T1, Protein cereblon/Wee1-like protein kinase (Homo sapiens); test: PROTAC activity at CRBN/Wee1 in human HeLa S3 cells assessed as induction of Wee1 degradation at 1 uM measured after 4 hrs by Western blot analysis; format: cell-based
[14] = target: T1, Protein cereblon/Wee1-like protein kinase (Homo sapiens); test: PROTAC activity at CRBN/Wee1 in human HeLa S3 cells assessed as induction of Wee1 degradation by measuring reduction in phosphorylation of CDK1 at Tyr15 residue at 100 to 10000 nM measured after 4 hrs by Western blot analysis; format: cell-based; conditions: dose 100-10000 nM
[15] = target: T1, Protein cereblon/Wee1-like protein kinase (Homo sapiens); test: PROTAC activity at CRBN/Wee1 in human BT-549 cells assessed as induction of Wee1 degradation at 100 nM and above concentrations measured after 4 hrs by Western blot analysis; format: cell-based
[16] = target: T1, Protein cereblon/Wee1-like protein kinase (Homo sapiens); test: PROTAC activity at CRBN/Wee1 in human HeLa S3 cells assessed as induction of Wee1 degradation by measuring reduction in phosphorylation of CDK1 at Tyr15 residue at 1 uM pretreated with AZD1775 for 2 hrs followed by incubation with compound for 5 hrs by Western blot analysis; format: cell-based
[17] = tested on: PC-3; test: Antiproliferative activity against human PC-3 cells assessed as inhibition of cell growth measured after 72 hrs by MTS assay; format: functional, cell-based; conditions: PC-3, 72 h
[18] = target: T1, Protein cereblon/Wee1-like protein kinase (Homo sapiens); test: PROTAC activity at CRBN/Wee1 in human PC-3 cells assessed as induction of Wee1 degradation at 100 nM and above concentrations measured after 4 hrs by Western blot analysis; format: cell-based
[19] = tested on: MCF7; test: Antiproliferative activity against human MCF7 cells assessed as inhibition of cell growth measured after 72 hrs by MTS assay; format: functional, cell-based; conditions: MCF7, 72 h
[20] = target: T2, von Hippel-Lindau disease tumor suppressor/Wee1-like protein kinase (Homo sapiens) (UniProt P30291+P40337); test: PROTAC activity at VHL/Wee1 in human HeLa S3 cells assessed as induction of Wee1 degradation by measuring reduction in phosphorylation of CDK1 at Tyr15 residue at 30 to 10000 nM measured after 4 hrs by Western blot analysis; format: cell-based; conditions: dose 30-10000 nM
[21] = target: T2, von Hippel-Lindau disease tumor suppressor/Wee1-like protein kinase (Homo sapiens); test: PROTAC activity at VHL/Wee1 in human HeLa S3 cells assessed as induction of Wee1 degradation at 1 uM pretreated with VH298 for 2 hrs followed by incubation with compound for 5 hrs by Western blot analysis; format: cell-based
[22] = target: T2, von Hippel-Lindau disease tumor suppressor/Wee1-like protein kinase (Homo sapiens); test: PROTAC activity at VHL/Wee1 in human BT-549 cells assessed as induction of Wee1 degradation by measuring reduction in CDK1 phosphorylation at Tyr15 residue at 100 nM and above concentrations measured after 4 hrs by Western blot analysis; format: cell-based
[23] = target: T2, von Hippel-Lindau disease tumor suppressor/Wee1-like protein kinase (Homo sapiens); test: PROTAC activity at VHL/Wee1 in human HeLa S3 cells assessed as induction of Wee1 degradation at 1 uM measured after 4 hrs by Western blot analysis; format: cell-based
[24] = target: T2, von Hippel-Lindau disease tumor suppressor/Wee1-like protein kinase (Homo sapiens); test: PROTAC activity at VHL/Wee1 in human PC-3 cells assessed as induction of Wee1 degradation at 100 nM and above concentrations measured after 4 hrs by Western blot analysis; format: cell-based
[25] = target: T2, von Hippel-Lindau disease tumor suppressor/Wee1-like protein kinase (Homo sapiens); test: PROTAC activity at VHL/Wee1 in human HeLa S3 cells assessed as induction of Wee1 degradation by measuring reduction in phosphorylation of CDK1 at Tyr15 residue at 1 uM measured after 24 hrs by Western blot analysis relative to control; format: cell-based; parameters: scale not given: the % may be the effect or the level left
[26] = target: T2, von Hippel-Lindau disease tumor suppressor/Wee1-like protein kinase (Homo sapiens); test: PROTAC activity at VHL/Wee1 in human HeLa S3 cells assessed as induction of Wee1 degradation by measuring reduction in phosphorylation of CDK1 at Tyr15 residue at 1 uM pretreated with AZD1775 for 2 hrs followed by incubation with compound for 5 hrs by Western blot analysis; format: cell-based
[27] = target: T2, von Hippel-Lindau disease tumor suppressor/Wee1-like protein kinase (Homo sapiens); test: PROTAC activity at VHL/Wee1 in human HeLa S3 cells assessed as induction of Wee1 degradation by measuring reduction in phosphorylation of CDK1 at Tyr15 residue at higher concentration measured after 4 hrs by Western blot analysis; format: cell-based
[28] = target: T2, von Hippel-Lindau disease tumor suppressor/Wee1-like protein kinase (Homo sapiens); test: PROTAC activity at VHL/Wee1 in human HeLa S3 cells assessed as induction of Wee1 degradation at 1 uM measured after 24 hrs by Western blot analysis relative to control; format: cell-based
[29] = target: T2, von Hippel-Lindau disease tumor suppressor/Wee1-like protein kinase (Homo sapiens); test: PROTAC activity at VHL/Wee1 in human LNCaP cells assessed as induction of Wee1 degradation by measuring reduction in CDK1 phosphorylation at Tyr15 residue at 300 nM and above concentrations measured after 4 hrs by Western blot analysis; format: cell-based
[30] = target: T2, von Hippel-Lindau disease tumor suppressor/Wee1-like protein kinase (Homo sapiens); test: PROTAC activity at VHL/Wee1 in human HeLa S3 cells assessed as induction of Wee1 degradation at 30 to 3000 nM measured after 4 hrs by Western blot analysis; format: cell-based; conditions: dose 30-3000 nM
[31] = target: T2, von Hippel-Lindau disease tumor suppressor/Wee1-like protein kinase (Homo sapiens); test: PROTAC activity at VHL/Wee1 in human BT-549 cells assessed as induction of Wee1 degradation at 100 nM and above concentrations measured after 4 hrs by Western blot analysis; format: cell-based
[32] = target: T2, von Hippel-Lindau disease tumor suppressor/Wee1-like protein kinase (Homo sapiens); test: PROTAC activity at VHL/Wee1 in human PC-3 cells assessed as induction of Wee1 degradation by measuring reduction in CDK1 phosphorylation at Tyr15 residue at 100 nM and above concentrations measured after 4 hrs by Western blot analysis; format: cell-based
[33] = target: T2, von Hippel-Lindau disease tumor suppressor/Wee1-like protein kinase (Homo sapiens); test: PROTAC activity at VHL/Wee1 in human MCF7 cells assessed as induction of Wee1 degradation at 300 nM and above concentrations measured after 4 hrs by Western blot analysis; format: cell-based
[34] = target: T2, von Hippel-Lindau disease tumor suppressor/Wee1-like protein kinase (Homo sapiens); test: PROTAC activity at VHL/Wee1 in human BT-549 cells assessed as induction of Wee1 degradation by measuring reduction in CDK1 phosphorylation at Tyr15 residue at 300 nM and above concentrations measured after 4 hrs by Western blot analysis; format: cell-based; conditions: MCF7
[35] = target: T2, von Hippel-Lindau disease tumor suppressor/Wee1-like protein kinase (Homo sapiens); test: PROTAC activity at VHL/Wee1 in human HeLa S3 cells assessed as induction of Wee1 degradation at 1 uM measured after 24 to 48 hrs by Western blot analysis; format: cell-based; conditions: time 24-48 hrs
[36] = target: T2, von Hippel-Lindau disease tumor suppressor/Wee1-like protein kinase (Homo sapiens); test: PROTAC activity at VHL/Wee1 in human LNCaP cells assessed as induction of Wee1 degradation at 300 nM and above concentrations measured after 4 hrs by Western blot analysis; format: cell-based
[37] = target: T1, Protein cereblon/Wee1-like protein kinase (Homo sapiens); test: PROTAC activity at CRBN/Wee1 in human HeLa S3 cells assessed as induction of Wee1 degradation by measuring reduction in phosphorylation of CDK1 at Tyr15 at above 1 uM measured after 24 to 48 hrs by Western blot analysis; format: cell-based; conditions: time 24-48 hrs

For `C=CCn1c(=O)c2cnc(Nc3ccc(N4CCN(CCCC(=O)NCCOCCOCCNc5cccc6c5C(=O)N(C5CCC(=O)NC5=O)C6=O)CC4)cc3)nc2n1-c1cccc(C(C)(C)O)n1` (centres undefined), the Activity [1] was 51%, the Activity [2] was “Active” and the IC50 [3] was 16.6 µM. For the same compound, the Activity [4] was “Active”, the Activity [5] was 27% and the IC50 [6] was 7.9 µM. The Activity [7] was “Active”, the Activity [8] was “Active” and the Activity [9] was “Active”. For the same compound, the Activity [10] was “Active”, the Activity [11] was “Active” and the Activity [12] was “Active”. The Activity [13] was “Active”, the Activity [14] was “Active” and the Activity [15] was “Active”. The Activity [16] was “Active”, the IC50 [17] was over 20 µM and the Activity [18] was “Active”. It also gave an IC50 [19] of 14 µM.
With `C=CCn1c(=O)c2cnc(Nc3ccc(N4CCN(CCCC(=O)N[C@H](C(=O)N5C[C@H](O)C[C@H]5C(=O)NCc5ccc(-c6scnc6C)cc5)C(C)(C)C)CC4)cc3)nc2n1-c1cccc(C(C)(C)O)n1` the IC50 [3] was 5.2 µM, the Activity [20] was “Active” and the Activity [21] was “Active”. For the same compound, the Activity [22] was “Active”, the IC50 [6] was 2.4 µM and the Activity [23] was “Active”. The Activity [24] was “Active”, the Activity [25] was 49% and the Activity [26] was “Active”. For the same compound, the Activity [27] was “Active”, the Activity [28] was 34% and the Activity [29] was “Active”. The Activity [30] was “Active”, the IC50 [17] was over 20 µM and the Activity [31] was “Active”. The Activity [32] was “Active”, the IC50 [19] was 7 µM and the Activity [33] was “Active”. The Activity [34] was “Active”, the Activity [35] was “Active” and the Activity [36] was “Active”.
With `C=CCn1c(=O)c2cnc(Nc3ccc(N4CCN(CCCC(=O)NCCCCCCNc5cccc6c5C(=O)N(C5CCC(=O)NC5=O)C6=O)CC4)cc3)nc2n1-c1cccc(C(C)(C)O)n1` (centres undefined) the Activity [1] was 39%, the Activity [5] was 23% and the Activity [9] was “Active”. The Activity [14] was “Active”.
In the case of `C=CCn1c(=O)c2cnc(Nc3ccc(N4CCN(CCCC(=O)NCCOCCOCCNc5cccc6c5C(=O)N(C5CCC(=O)N(C)C5=O)C6=O)CC4)cc3)nc2n1-c1cccc(C(C)(C)O)n1` (centres undefined), the IC50 [3] is reported as 11 µM, the IC50 [6] is reported as 9 µM and the IC50 [17] is reported as over 20 µM. For the same compound, the Activity [37] was “Active” and the IC50 [19] was 11 µM.

— ChEMBL document CHEMBL5143606, “Selective Wee1 degradation by PROTAC degraders recruiting VHL and CRBN E3 ubiquitin ligases” (Bioorg Med Chem Lett, 2022)
